Structures are written as SMILES. Substitutions are numbered along the chain they refer to.

Assay [1] has as its target T1, WT human TP receptor (Homo sapiens, UniProt P21731).
T1 construct: expressed in transfected cells; host or cells: HEK293
T1 sequence (P21731 1-343): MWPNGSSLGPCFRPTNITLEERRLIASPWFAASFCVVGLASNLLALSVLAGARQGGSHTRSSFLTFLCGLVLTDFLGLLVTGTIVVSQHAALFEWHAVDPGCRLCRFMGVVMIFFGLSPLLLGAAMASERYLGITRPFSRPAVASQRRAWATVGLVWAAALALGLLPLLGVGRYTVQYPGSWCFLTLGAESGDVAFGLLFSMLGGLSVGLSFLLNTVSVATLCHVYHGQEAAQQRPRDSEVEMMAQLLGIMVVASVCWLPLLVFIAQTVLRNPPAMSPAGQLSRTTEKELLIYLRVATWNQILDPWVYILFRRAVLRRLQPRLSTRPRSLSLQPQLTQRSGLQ
The assay can be described thus: [3H]SQ29,548 radioligand binding (mixed-type and heterologous competition), WT receptor. To be noted: HEK293 cells, competition vs 1 nM [3H]SQ29,548, 25°C 30 min, value ±%CV. The method, then:
(§1) Receptor expression and functional activity were monitored 48 hours after transfection. […] Heterologous competition studies involved concentrations of the indicated unlabeled ligands extending from 0.1 nM to 30 µM. After 30 min incubation at 25 °C, the reaction was stopped by aspiration of the medium, cells were washed with ice-cold PBS containing 0.2% (w/v) BSA and lysed in 0.5 N NaOH. Radioactivity was measured by liquid scintillation counting. Binding data were analyzed as described in Data and Statistical Analysis. Quantification of the total labeled inositol phosphates (IP) accumulation was performed using a conventional gravity flow column chromatography, as described previously, [19]. Briefly, the day before the assay, cells were labeled with 0,5 µCi of [myo-2-^3H]inositol (17 Ci/mmol) for 18–20 hours in serum-free, inositol-free DMEM containing 20 mM HEPES buffer, pH 7.4, and 0.5% (w/v) Albumax I. The day of the assay, media was replaced with serum-free, inositol-free DMEM containing 25 mM LiCl and cells stimulated for 30 min with the indicated agonists. After removal of the medium, cells were lysed with 10 mM formic acid and lysates were applied onto an anion exchange AG 1X-8 column, formate form, 200–400 mesh. The total IP fraction was then eluted with 2 M ammonium formate/formic acid buffer at pH 5 and radioactivity determined by liquid scintillation counting. Rescue experiments were performed essentially as above, except for a 18 hours incubation step with 1 µΜof […] followed by its removal by washing three times with ice-cold PBS containing 1 mM MgCl2 and 0.1 mM CaCl2 before starting the experiment.
(§2) All average results are presented as mean±S.E. When indicated, ANOVA followed by post-hoc test for multiple comparisons was performed. Data from radioligand binding were evaluated by a nonlinear, least-squares curve-fitting procedure using GraphPad Prism version 4, implemented with the n-ligand m-binding site model, as described in the LIGAND computer program. Concentration-response curves were evaluated using Prism 4, which use the four parameters logistic model as described in the ALLFIT program. Parameter errors are all expressed in percentage coefficient of variation (%CV) and calculated by simultaneous analysis of at least two different independent experiments performed in duplicate or triplicate. Parameter comparison has been performed on the base of the F test for extra sum of square principle. All curves shown are computer generated.
(§3) Thus, transfection conditions were adjusted to secure equivalent levels of receptor expression for WT and mutants as previously described, [17], [19]. […] All the experiments were conducted within this range of receptor expression, if not specified differently.

Assay [2] concerns the target T2, E129V mutant human TP receptor (Homo sapiens, UniProt P21731, E129V).
T2 construct: expressed in transfected cells; host or cells: HEK293
T2 sequence (P21731 1-343 E129V): T1 sequence (P21731 1-343) with E129V
Put plainly: [3H]SQ29,548 radioligand binding (mixed-type and heterologous competition), E129V mutant. Particulars: HEK293 cells; for Ki: E129V, competition vs 1 nM [3H]SQ29,548, 25°C 30 min, value ±%CV; for Affinity ratio (Ki WT over Ki E129V): WT vs E129V. The method, then: as §1, §2, §3

The target of assay [3] is T1, WT human TP receptor. Put plainly: Total inositol phosphate (IP) accumulation, WT receptor. The assay is classed as cell-based. To be noted: HEK293 cells; for Pharmacodynamic behaviour in total IP assay: SQ29,548 in absence or presence of Gαq overexpression. The method, then: as §1, §2
Assay [4] has as its target T2, E129V mutant human TP receptor. The assay can be described thus: Total inositol phosphate (IP) accumulation, E129V mutant. It counts as cell-based. To be noted: HEK293 cells; for EC50 / Emax, total IP / Pharmacodynamic behaviour in total IP assay: E129V; for Activity ratio (EC50 WT over EC50 E129V), total IP: WT vs E129V; for Pharmacodynamic behaviour in total IP assay: SQ29,548 in absence or presence of Gαq overexpression. The method, then:
as §1, §2

Assay [5] concerns the target T1, WT human TP receptor. The assay can be described thus: BRET2 measurement of Gq protein activation, WT receptor. The assay is classed as cell-based. Particulars: HEK293 cells, value ±%CV; for EC50: Gαq-Rluc8/GFP10-Gγ2/Gβ1, 2 min ligand.
Source text: HEK 293 cells were co-transfected with vectors expressing the GFP^10-Gγ2, Gβ1, Gαq-Rluc8 and WT or E129V mutant of TP receptor to investigate direct G protein activation with an intramolecular bioluminescent resonance energy transfer (BRET^2) strategy. To avoid possible variations in the BRET signaling resulting from fluctuation in the relative expression levels of the energy donor and acceptor, we designed transfection conditions to maintain constant GFP^10 and Rluc8 expression and their ratios in each experimental set. Total fluorescence and luminescence were directly determined in an aliquot of the transfected cells using an Infinite F500 microplate reader (Tecan, Milan, Italy) as previously described. […] 48 hours after transfection, cells were washed once with PBS, detached, and resuspended in PBS+0.1% (w/v) glucose at room temperature. Cells were then distributed (80 µg of proteins per well) into a 96-well microplate (Wallac, Perkin Elmer, Monza, Italy) and incubated in the presence or absence of increasing concentrations of ligands for 2 min before the addition of the luciferase substrate Coelenterazine 400a (5 µM; Biotium, Hayward, CA). BRET signal between Rluc8 and GFP^10 was measured immediately after the addition of the Rluc substrate in the microplate reader. The BRET signal was calculated as the ratio of the light emitted by GFP^10 (510–540 nm) over the light emitted by Rluc8 (370–450 nm). The changes in BRET induced by the ligands were expressed as Òagonist-induced BRETÓ, obtained by subtracting the BRET signal detected in the presence of PBS by the BRET signal detected in the presence of the specific ligand.
as §2
This recorded real time conformational changes between the α and the βγ subunits within the Gq protein, where a decrease of the BRET signal provoked by agonist-induced receptor activation is indicative of a conformational reorganization leading the Gα-Gβγ interface to open, reflects the initial event of Gq protein activation, [23] (Figure 6A).
For orientation: BRET reads energy transfer from a luciferase to a nearby fluorophore.

In assay [6] the target is T2, E129V mutant human TP receptor. The assay can be described thus: BRET2 measurement of Gq protein activation, E129V mutant. It counts as cell-based. Particulars: HEK293 cells; for EC50: E129V, Gαq-Rluc8/GFP10-Gγ2/Gβ1, 2 min ligand, value ±%CV; for Activity ratio (EC50 WT over EC50 E129V), BRET: WT vs E129V. Here is the method:
as §2

For assay [7], the target named is T3, double mutant E129V/E240V of human TP receptor (Homo sapiens, UniProt P21731, E129V/E240V).
T3 construct: expressed in transfected cells; host or cells: HEK293
T3 sequence (P21731 1-343 E129V/E240V): T1 sequence (P21731 1-343) with E129V, E240V
The assay can be described thus: Total inositol phosphate (IP) accumulation, E129V/E240V double mutant, rescue with SQ29,548. It counts as cell-based. Particulars: cells exposed to 1 µM for 18 hours, removed by washing, then 1 µM U46619 for 30 min. The method, then:
Receptor expression and functional activity were monitored 48 hours after transfection. […] Heterologous competition studies involved concentrations of the indicated unlabeled ligands extending from 0.1 nM to 30 µM. After 30 min incubation at 25 °C, the reaction was stopped by aspiration of the medium, cells were washed with ice-cold PBS containing 0.2% (w/v) BSA and lysed in 0.5 N NaOH. Radioactivity was measured by liquid scintillation counting. Binding data were analyzed as described in Data and Statistical Analysis. Quantification of the total labeled inositol phosphates (IP) accumulation was performed using a conventional gravity flow column chromatography, as described previously, [19]. […] The total IP fraction was then eluted with 2 M ammonium formate/formic acid buffer at pH 5 and radioactivity determined by liquid scintillation counting. […]
All average results are presented as mean±S.E. When indicated, ANOVA followed by post-hoc test for multiple comparisons was performed. Data from radioligand binding were evaluated by a nonlinear, least-squares curve-fitting procedure using GraphPad Prism version 4, implemented with the n-ligand m-binding site model, as described in the LIGAND computer program. Concentration-response curves were evaluated using Prism 4, which use the four parameters logistic model as described in the ALLFIT program. […]

[8] abbreviates: 30 min stimulation, no Gαq overexpression, value ±%CV.
[9] abbreviates: Gαq overexpression (5x), 30 min.

Consider `CCCCC[C@H](O)/C=C/[C@H]1[C@H](O)CC(=O)[C@H]1C/C=C\CCCC(=O)O` [8-isoPGE2, 8-iso Prostaglandin E2], for which the Ki was 2916 ± 15 nM in assay [1] and 547.6 ± 2 nM in assay [2]. Besides, the “Affinity ratio (Ki WT over Ki E129V)” value in assay [2] was 5.3. The “Emax, total IP” value was determined as 5087±21 dpm/well in assay [3] (setting [8]) and 12201±5 dpm/wel in assay [4] (30 min stimulation, value ±%CV). The EC50 was 1160 ± 72 nM in assay [3] (30 min stimulation, value ±%CV); 95.9 ± 60 nM in assay [4] (30 min stimulation, value ±%CV); 1980 ± 72 nM in assay [5]; 485 ± 46 nM in assay [6]. The “Activity ratio (EC50 WT over EC50 E129V), total IP” value in assay [4] is 12.0. For the same molecule, the “Emax, agonist-induced BRET” value in assay [5] was −0.02±42. In assay [6], the “Activity ratio (EC50 WT over EC50 E129V), BRET” value is 4.1.
With `CCCCC[C@H](O)/C=C/[C@@H]1[C@H](C/C=C\CCCC(=O)O)[C@@H](O)C[C@H]1O` [8-isoPGF2α, 8-iso Prostaglandin F2α], the inhibition constant (Ki) amounted to 12930 ± 19 nM in assay [1] and 2908 ± 11 nM in assay [2]. In assay [2], the “Affinity ratio (Ki WT over Ki E129V)” value came to 4.4. The “Emax, total IP” value is recorded as 6744±42 dpm/well in assay [3] (setting [8]) and 15287±7 dpm/wel in assay [4] (30 min stimulation, value ±%CV). Besides, the EC50 in assay [3] (30 min stimulation, value ±%CV) stood at 4000 ± 68 nM; in assay [4] (30 min stimulation, value ±%CV), 493 ± 53 nM; in assay [5], 3940 ± 48 nM; in assay [6], 404 ± 31 nM. In addition, in assay [4], the “Activity ratio (EC50 WT over EC50 E129V), total IP” value is 8.1. In addition, in assay [5], the “Emax, agonist-induced BRET” value is reported as −0.05±9. The “Activity ratio (EC50 WT over EC50 E129V), BRET” value in assay [6] came out at 9.7.
Take `O=C(O)CCCC=CCC1C2CCC(O2)C1C=CC(O)COc1ccc(I)cc1` (stereo not drawn) [I-BOP, [1S-[1α,2α(Z),3β(1E,3S*),4α]]-7-[3-[3-hydroxy-4-(4-iodophenoxy)-1-butenyl]-7-oxabicyclo[2.2.1]hept-2-yl]-5-heptenoic acid]: the Ki in assay [1] came to 24.3 ± 18 nM; in assay [2] it was 3.9 nM. For the same molecule, the “Emax, total IP” value in assay [3] (setting [8]) was 13099±14 dpm/well; in assay [4] (30 min stimulation, value ±%CV) it was 17156±8 dpm/wel. Moreover, the EC50 amounted to 25.1 ± 65 nM in assay [3] (30 min stimulation, value ±%CV); 2.99 nM in assay [4] (30 min stimulation, value ±%CV); 13 ± 27 nM in assay [5]; 3.96 nM in assay [6]. The “Emax, agonist-induced BRET” value in assay [5] is listed as −0.07±5.
In the case of `CCCCC[C@H](O)/C=C/C1CC2CC(C1C/C=C\CCCC(=O)O)C2(C)C` (stereo partly drawn) [PTA2, 9α,11α-(dimethyl)methylene-15S-hydroxy-11α-deoxy-11α-methylene-thromba-5Z,13E-dien-1-oic acid], the Ki in assay [1] worked out at 12100 nM; in assay [2] it was 4840 nM. Also, the “Emax, total IP” value in assay [3] (setting [8]) turned out to be 5856 dpm/well; in assay [3] (setting [9]) it was 19670 dpm/well; in assay [4] (setting [9]) it was 26642 dpm/well; in assay [4] (no Gαq overexpression, 30 min), 19423 dpm/well. Also, the values for the concentration giving a half-maximal response (EC50) in assay [3] (setting [9]) and in assay [4] (setting [9]) were 1450 nM and 747 nM, respectively. For the same molecule, the figures for the “Pharmacodynamic behaviour in total IP assay” value in assay [3] and in assay [4] were “very weak partial agonist” and “much stronger agonist”, respectively.
As to `O=C(O)CCC/C=C\C[C@@H]1[C@H](CNNC(=O)Nc2ccccc2)[C@H]2CC[C@@H]1O2` [SQ29,548, [1S-[1α,2α(Z),3α,4α]]-7-[3-[[2-[(phenylamino)carbonyl]-hydrazino]methyl]-7-oxabicyclo[2.2.1]hept-2-yl]-5-heptenoic acid], the “Pharmacodynamic behaviour in total IP assay” value in assay [3] and in assay [4] was “pure antagonist” each time. The “Functional rescue of double mutant receptor activity” value in assay [7] is on record as “able to rescue double mutant receptor functional activity, albeit not completely”.

By Ki is commonly meant a measure of affinity in units of concentration, obtained from inhibition or displacement. Low readings indicate a stronger hold on the target, high ones a looser hold on the target. Usually EC50 stands for the concentration that produces a half-maximal response. High values mean weaker potency, low ones greater potency.

These data come from publication PMC3610872, “Full and Partial Agonists of Thromboxane Prostanoid Receptor Unveil Fine Tuning of Receptor Superactive Conformation and G Protein Activation” (PLoS ONE, 2013).
